Test results: PubChem BioAssay (NCI)
Where “and” joins values, the source holds several entries; their conditions need not be identical. Equal values may be shown once.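 Values below derive from 48-hour exposures of cells grown in 96-well plates, with endpoints linearly interpolated between the two concentrations bracketing the appropriate inhibition level. At the GI50, growth is halved. TGI: concentration producing complete growth inhibition.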

What was measured:
Assay in all cases: inhibition of tumour cell growth, NCI panel, 48 h
A549 NSCLC = test system: A549 NSCLC
HT29 colon = test system: HT29 colon
KM12 colon = test system: KM12 colon
MDA-MB-231 breast = test system: MDA-MB-231 breast
NCI-H226 lung = test system: NCI-H226 lung
NCI-H23 lung = test system: NCI-H23 lung
SNB-19 CNS = test system: SNB-19 CNS
SR leukemia = test system: SR leukemia

Structure (SMILES)	GI50 (A549 NSCLC)	TGI (A549 NSCLC)	GI50 (HT29 colon)	TGI (HT29 colon)	GI50 (KM12 colon)	TGI (KM12 colon)	GI50 (MDA-MB-231 breast)	TGI (MDA-MB-231 breast)	GI50 (NCI-H226 lung)	TGI (NCI-H226 lung)	GI50 (NCI-H23 lung)	TGI (NCI-H23 lung)	GI50 (SNB-19 CNS)	TGI (SNB-19 CNS)	GI50 (SR leukemia)	TGI (SR leukemia)
O=C1c2cccc(NCCN=Cc3cc([N+](=O)[O-])ccc3O)c2C(=O)c2c(NCCN=Cc3cc([N+](=O)[O-])ccc3O)cccc21	3.89 µM	> 100 µM	1.26 µM	> 100 µM	2.8 µM	> 100 µM	3.12 µM	71.7 µM	3.34 µM	> 100 µM	5.8 µM	> 100 µM	6.95 µM	> 100 µM	1.49 µM	> 100 µM
C#CC1(O)C(COP(=O)(O)OC(COCCCCCCCCCCCCCCCCCC)COP(=O)(O)OCC2OC(n3cc(F)c(=O)[nH]c3=O)CC2O)OC(n2ccc(N)nc2=O)C1O (stereo not given)	–	> 38.3 µM and 22.6 µM	–	> 100 µM and 41.5 µM	–	> 49.8 µM and 17 µM	–	26.7 µM and 31.1 µM	–	23.5 µM and 26 µM	0.613 µM and 2.28 µM	20.7 µM and 33.1 µM	–	16.7 µM and 15.1 µM	–	–
COc1cccc2c1ccc1nc3cccc(C(=O)N[C@H](C)CN(C)C)c3nc12	0.0402 µM	1.99 µM	0.0427 µM	0.365 µM	0.0724 µM	2.33 µM	0.178 µM	3.25 µM	–	–	0.0929 µM	0.382 µM	0.0907 µM	10.9 µM	0.0315 µM	–
Nc1nc(N)c2nc(CNc3ccc(C(=O)NC(CC(=O)O)C(=O)O)cc3)cnc2n1 (stereo not given)	0.569 µM	> 100 µM	0.542 µM	> 100 µM	0.897 µM	> 100 µM	> 100 µM	> 100 µM	30.6 µM	> 100 µM	2.38 µM	> 100 µM	8.39 µM	> 100 µM	0.267 µM	> 100 µM
O=c1cc(-c2ccccc2F)[nH]c2ccc(N3CCCC3)cc12	< 0.001 µM	> 100 µM	< 0.001 µM	–	< 0.001 µM	–	> 100 µM	> 100 µM	< 0.001 µM	0.0215 µM	0.199 µM	–	< 0.001 µM	0.0725 µM	< 0.001 µM	–
Cc1ccc(C(CC(=O)c2ccccc2)C2C(=O)NC(=O)NC2=O)cc1 (stereo not given)	> 100 µM	> 100 µM	> 100 µM	> 100 µM	> 100 µM	> 100 µM	> 100 µM	> 100 µM	> 100 µM	> 100 µM	> 100 µM	> 100 µM	> 100 µM	> 100 µM	–	–
CCC1CN2C(=N1)c1ccccc1-c1cc(Cl)ccc12 (stereo not given)	2.24 µM	15.6 µM	2.01 µM	7.11 µM	3.18 µM	12.5 µM	3.4 µM	25.4 µM	1.81 µM	4.86 µM	3.78 µM	15.2 µM	5.85 µM	30.5 µM	1.51 µM	4.53 µM
O=c1ccn(C2CC(O)C(CO)O2)c(=O)[nH]1 (stereo not given)	> 5000 µM	> 5000 µM	> 5000 µM	> 5000 µM	> 5000 µM	> 5000 µM	> 5000 µM	> 5000 µM	> 5000 µM	> 5000 µM	> 5000 µM	> 5000 µM	> 5000 µM	> 5000 µM	> 5000 µM	> 5000 µM
CCOC(=O)c1c2c(n(Cc3ccc(Cl)cc3Cl)c1C)-c1nc[nH]c1C(=O)C2=O	10.9 µM	23.1 µM	15.5 µM	28.8 µM	5.87 µM	19.4 µM	2.24 µM	5.04 µM	14.2 µM	31.5 µM	–	–	12.6 µM	26.2 µM	1.21 µM	2.79 µM
COc1cccc(-n2nc(C)c3c(N/N=C(\C)c4ccncc4)ncnc32)c1	> 25 µM	> 25 µM	> 25 µM	> 25 µM	> 25 µM	> 25 µM	8.4 µM	> 25 µM	> 8.39 µM	> 25 µM	> 25 µM	> 25 µM	> 25 µM	> 25 µM	> 25 µM	> 25 µM
CCOC(=O)c1cc2c(n1Cc1cccc(OC)c1)-c1oncc1CCC2	0.915 µM	> 100 µM	0.401 µM	22.8 µM	0.58 µM	> 100 µM	4.06 µM	> 100 µM	32.1 µM	> 100 µM	8.68 µM	> 100 µM	25.3 µM	> 100 µM	0.301 µM	26.8 µM
O=C(Cn1c(=O)c(-c2ccccc2)nc2ccccc21)Nc1ccc(F)cc1	94.8 µM	> 100 µM	> 100 µM	> 100 µM	> 100 µM	> 100 µM	99.7 µM	> 100 µM	> 100 µM	> 100 µM	> 100 µM	> 100 µM	41.8 µM	> 100 µM	–	–
Cc1cc(O)c(C2=NN(c3ccc(S(N)(=O)=O)cc3)C(c3ccccc3Cl)C2)cc1Cl (stereo not given)	3.82 µM	19.3 µM	1.92 µM	3.63 µM	–	–	2.14 µM	4.52 µM	3.02 µM	9.44 µM	1.79 µM	3.58 µM	3.54 µM	16.3 µM	2.97 µM	> 100 µM
COC1=CC(c2ccc[nH]2)=N/C1=C\c1[nH]c(C)c(C(=O)CCCCC(=O)NC(C)(C)C)c1C	3.34 µM	21.7 µM	0.552 µM	3.11 µM	1.16 µM	2.38 µM	0.957 µM	3.95 µM	2.97 µM	15 µM	1.57 µM	4.46 µM	3.01 µM	18.7 µM	0.395 µM	2.35 µM
O=C(O)c1cc2ccc3ccccc3c2oc1=O	–	> 100 µM	–	> 100 µM	–	> 100 µM	–	> 100 µM	–	> 100 µM	–	> 100 µM	–	> 100 µM	–	> 100 µM
COc1cccc(-c2nn(-c3ccccc3)cc2-c2ccnc(NCCCNC(=O)Nc3ccc(Cl)c(Cl)c3)c2)c1	3.79 µM	13.4 µM	2.55 µM	5.19 µM	2.75 µM	11.3 µM	1.97 µM	5.03 µM	5.61 µM	41.6 µM	3.16 µM	13.9 µM	4.01 µM	25.6 µM	1.73 µM	4.62 µM
